Experimental data taken from patent US11406648B2, “C17-heteroaryl derivatives of oleanolic acid and methods of use thereof” (REATA PHARMACEUTICALS, INC., priority 2012, dated 2022).

Test system: RAW264.7 mouse macrophages
Test: Suppression of IFNγ-induced NO production (Nitric Oxide Production and Cell Viability Assay)
Type: cell-based
Settings: IFNγ-induced NO production, Griess reagent, normalized to cell viability, 2 h pre-treatment, IFNγ 24 h
Experimental: Assay results for the suppression of IFNγ-induced NO production are shown for several of the compounds of the present invention in Table 1 below. […] Details regarding this assay are provided in the Examples section below. Nitric Oxide Production and Cell Viability Assay. RAW264.7 mouse macrophages were plated in 96-well plates at 30,000 cells/well in triplicate in RPMI1640+0.5% FBS and incubated at 37° C. with 5% CO2. On the next day, cells were pre-treated with DMSO or drug (0-200 nM dose range) for 2 hours, and then treated with recombinant mouse IFNγ (R&D Systems) for 24 hours. Nitric Oxide concentration in media was determined using the Griess reagent system (Promega). Cell viability was determined using WST-1 reagent (Roche). IC50 values were determined based on the suppression of IFNγ induced Nitric Oxide production normalized to cell viability.

Question: For Cc1nnc(C[C@]23CCC(C)(C)C[C@H]2[C@H]2C(=O)C=C4[C@@]5(C)C=C(C#N)C(=O)C(C)(C)[C@@H]5CC[C@@]4(C)[C@]2(C)CC3)o1 [TX63593], which IC50 is on record?
Answer: The IC50 was 1.7 nM.

Question: For CCCc1nnc([C@]23CCC(C)(C)C[C@H]2[C@H]2C(=O)C=C4[C@@]5(C)C=C(C#N)C(=O)C(C)(C)[C@@H]5CC[C@@]4(C)[C@]2(C)CC3)o1 [TX63475], which IC50 is on record?
Answer: The IC50 was 5.7 nM.

Question: CC(C)c1nnc([C@]23CCC(C)(C)C[C@H]2[C@H]2C(=O)C=C4[C@@]5(C)C=C(C#N)C(=O)C(C)(C)[C@@H]5CC[C@@]4(C)[C@]2(C)CC3)o1 [TX63476] was tested. Which IC50 did it give?
Answer: Its IC50 is 5.4 nM.

Question: Which IC50 does the source give for CC1(C)CC[C@]2(c3nnc(C4CC4)o3)CC[C@]3(C)[C@H](C(=O)C=C4[C@@]5(C)C=C(C#N)C(=O)C(C)(C)[C@@H]5CC[C@]43C)[C@@H]2C1 [TX63477] here?
Answer: The IC50 was 3.3 nM.

Question: Which IC50 does the source give for Cc1noc([C@]23CCC(C)(C)C[C@H]2[C@H]2C(=O)C=C4[C@@]5(C)C=C(C#N)C(=O)C(C)(C)[C@@H]5CC[C@@]4(C)[C@]2(C)CC3)n1 [TX63501] here?
Answer: The IC50 was 1 nM.

Question: How did the IC50 turn out when CC1(C)CC[C@]2(c3nnco3)CC[C@]3(C)[C@H](C(=O)C=C4[C@@]5(C)C=C(C#N)C(=O)C(C)(C)[C@@H]5CC[C@]43C)[C@@H]2C1 [TX63479] was run?
Answer: Its IC50 is 1.1 nM.

Question: For Cc1nnc([C@]23CCC(C)(C)C[C@H]2[C@H]2C(=O)C=C4[C@@]5(C)C=C(C#N)C(=O)C(C)(C)[C@@H]5CC[C@@]4(C)[C@]2(C)CC3)o1 [TX63384], which IC50 is on record?
Answer: Its IC50 is 2 nM.

Question: Which IC50 does the source give for COCc1nnc([C@]23CCC(C)(C)C[C@H]2[C@H]2C(=O)C=C4[C@@]5(C)C=C(C#N)C(=O)C(C)(C)[C@@H]5CC[C@@]4(C)[C@]2(C)CC3)o1 [TX63478] here?
Answer: Its IC50 is 1.8 nM.
